In this assay the test system is Arabidopsis seedlings. The assay can be described thus: Dose-response of imazethapyr spray on 7-day-old Arabidopsis seedlings (foliar damage). It counts as in vivo, Arabidopsis thaliana. The note with it: repeated dose-response experiments, spray application, scored for foliar damage at 16 days post-treatment. As for the experimental part: EMS-mutagenized M2 generation Arabidopsis thaliana (cv. Col-0) seeds were obtained from Lehle Seeds, Round Rock, Texas under catalog number M2E02-02. Flats were seeded to provide approximately one million ems-mutagenized seeds. The seeded flats were then watered by sub-irrigation, covered with transparent plastic domes, and maintained at 4° C. and 70% relative humidity for 4 days in the dark. At the end of this period the growth chamber conditions were reset to 21° C., 70% relative humidity under a 16 hour photoperiod, with soil-surface light intensity adjusted to approximately 150 uEinsteins/m^2/s. The flats were maintained under these conditions for seven days prior to imazethapyr, an imidazolinone treatments. The plastic domes were removed 2 days before the treatments to acclimate the plants to ambient humidity.
Based on repeated dose-response experiments using 7-day-old Arabidopsis seedlings grown under the conditions described above, it was determined that the I100 for imazethapyr was approximately 0.035 lbs. active ingredient per acre (a.i./acre). EMS-mutagenized seedlings were screened at a rate equivalent to approximately twice the 1100 value, or 0.07 lbs. a.i./acre. […] Seedlings were then returned to the growth chamber, and scored for foliar damage at 16 days post-treatment.

Molecules are shown by their SMILES.

Regarding `CCc1cnc(C2=NC(C)(C(C)C)C(=O)N2)c(C(=O)O)c1` (stereo not shown) [imazethapyr, 2-[4,5-dihydro-4-methyl-4-(1-methylethyl)-5-oxo-1H-imidazol-2-yl]-5-ethyl-3-pyridinecarboxylic acid], the I100 result is “approximately 0.035 lbs. active ingredient per acre”.
